Each structure is given as a SMILES string.

The assay deals with T1, KRAS G12C 1-169, his-tagged protein, GDP-loaded (Homo sapiens, UniProt P01116, G12C).
T1 construct: KRAS G12C 1-169, his-tagged protein, GDP-loaded
T1 sequence (P01116 1-169 isoform P01116-2 G12C): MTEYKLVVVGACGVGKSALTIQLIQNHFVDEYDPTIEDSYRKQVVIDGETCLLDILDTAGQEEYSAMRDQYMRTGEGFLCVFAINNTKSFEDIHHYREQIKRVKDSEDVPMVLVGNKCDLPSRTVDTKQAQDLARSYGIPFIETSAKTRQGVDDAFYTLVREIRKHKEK
Kind of assay: Biochemical assay: covalent modification of KRAS G12C measured by mass spectrometry (RapidFire/TOF or Q-Exactive). The assay is classed as binding. The note with it: compound concentration and incubation time not given. How it is done: Test compounds are prepared as 10 mM stock solutions in DMSO (Fisher cat #BP-231-100). KRAS G12C 1-169, his-tagged protein, GDP-loaded is diluted to 2 μM or 0.5 μM in buffer (20 mM Hepes, 150 mM NaCl, 1 mM MgCl2). Compounds are tested for activity as follows:
Compounds are diluted to 50× final test concentration in DMSO in 96-well storage plates. Compound stock solutions are vortexed before use and observed carefully for any sign of precipitation. Dilutions are as follow: • For 100 μM final compound concentration, compounds are diluted to 5000 μM (5 μL 10 mM compound stock+5 μL DMSO and mixed well by pipetting. • For 30 μM final compound concentration, compounds are diluted to 1500 μM (3 μI, 10 mM compound stock+17 μL DMSO) and mixed well by pipetting. • For 10 μM final compound concentration, compounds are diluted to 500 μM (2 μL 10 mM compound stock+38 μL DMSO) and mixed well by pipetting. 49 μL of the stock protein solution is added to each well of a 96-well PCR plate (Fisher cat #1423027). 1 μl of the diluted 50× compounds are added to appropriate wells in the PCR plate using 12-channel pipettor. Reactions are mixed carefully and thoroughly by pipetting up/down with a 200 μL multi-channel pipettor. […] The plate is then resealed with aluminum seal and stored on dry ice until analyzed as described below.
The above described assays are analyzed by mass spectrometry according to one of the following two procedures: […]
After another 30 minute equilibration time, a blank batch (i.e., buffer) is run to ensure equipment is operating properly. […] The method is then run and masses of each individual well recorded. […]
The masses and peak intensities of KRAS G12C protein species are measured using a Dionex RSLCnano system (Thermo Scientific) connected to a Q Exactive Plus mass spectrometer (Thermo Scientific). […]
The mass spectrometer is operated in profile mode at a resolution of 17500, 5 microscans, using 50 msec max injection time and an AGC target of 1×10^6, and a full mass range from 800-1850 m/z is recorded. […]
On to `C=CC(=O)N1CC(n2cnc3c(Nc4cc(O)cc5ccccc45)cncc3c2=O)C1` [Compound 56, 3-(1-acryloylazetidin-3-yl)-8-((3-hydroxynaphthalen-1-yl)amino)pyrido[4,3-d]pyrimidin-4(3H)-one], for which the Binding % result is given as “+ (+ indicates binding activity up to 5%)”. For `C=CC(=O)N1CC(n2cnc3c(Nc4c(C)ccc5cn[nH]c45)cncc3c2=O)C1` [Compound 55, 3-(1-acryloylazetidin-3-yl)-8-((6-methyl-1H-indazol-7-yl)amino)pyrido[4,3-d]pyrimidin-4(3H)-one] the value was “+ (+ indicates binding activity up to 5%)”; for `C=CC(=O)N1CC(n2cc(C)c3cncc(Nc4c(C)ccc5[nH]ncc45)c3c2=O)C1` [Compound 57, 2-(1-acryloylazetidin-3-yl)-4-methyl-8-((5-methyl-1H-indazol-4-yl)amino)-2,6-naphthyridin-1(2H)-one], “+ (+ indicates binding activity up to 5%)”.

Source of the values: patent publication US11059819B2, “Fused hetero-hetero bicyclic compounds and methods of use thereof” (Araxes Pharma LLC, priority 2017, dated 2021).
